This data set in a line: Plasma pharmacokinetics in rats following a 2 mg/kg intravenous bolus injection. Type of data set: in vivo, male Sprague-Dawley rats. The note with it: 2 mg/kg i.v. bolus; for AUC(0-inf): linear trapezoidal summation with extrapolation to infinity; for clearance: read-out: CLT (total plasma clearance) (converted); for half-life / k el: 2 mg/kg; for concentration at 1 h / concentration at 4 h / concentration at 8 h / concentration at 24 h / concentration at 31 h / concentration at 48 h / concentration at 72 h / concentration at 96 h / concentration at 120 h / concentration at 144 h / concentration at 168 h / concentration at 216 h: Mean ± SD (N = 3); for concentration at 96 h / concentration at 120 h / concentration at 144 h / concentration at 168 h / concentration at 216 h: ND = Not Detected (lower limit of detection 2 ng/mL). As to the method: The pharmacokinetic properties of A(±) of Example 1 were compared with those of each enantiomer, A(+) and A(-) of Example 1. The comparison was made in rats following an intravenous bolus injection.
The test articles were formulated in a 0.1N sodium carbonate solution to yield a 2 mg/mL solution. A total of 126 male Sprague-Dawley rats weighing 200-300 g were divided into three groups of 42 rats each. The animals were offered food and water ad libitum except fasting overnight prior to and for four hours after dosing. Rats in each group received a single 2 mg/kg intravenous dose of A(+) or A(-) or A(±) via the tail vein. At the following times postdose, three rats from each group were anesthetized by carbon dioxide inhalation and plasma samples were collected from each animal: 0, 1, 4, 8, 24, 31, 48, 72, 96, 120, 144, 168, 216, and 336 hours. Plasma concentrations of each drug were determined by gas chromatographic-electron capture (GC-EC) methods known to those skilled in the art, with a lower limit of detection of 2 ng/mL. See, e.g., Park, Y. H., et al., Xenobiotica 22:543-550 (1992). The values of the elimination rate constants, α,β and γ, were obtained by linear regression analysis of the log-linear portion of the plasma concentration-time curve. These constants correspond to the initial distribution, disposition and terminal elimination phases, respectively. The α and β values were obtained by the method of residuals. The corresponding half-lives (t1/2α, t1/2β and t1/2γ) were calculated by dividing 0.693 by each respective parameter. The area under the plasma concentration versus time curve from 0 to infinity (AUC..infin.) was calculated by linear trapezoidal summation with extrapolation to infinity. Total plasma clearance CLT was calculated as dose divided by AUC..infin.. The area under the first moment curve (AUMC) is the area under the curve observed for the product of time and concentration, versus time. Apparent volume of distribution at steady state (Vss) was calculated by the product of dose and AUMC, divided by (AUC..infin.)^2.

Where [1] appears, read: rat, plasma, iv, read-out: t1/2α (initial distribution phase half-life) (converted).
The mark [2] stands for this setting: rat, plasma, iv, read-out: t1/2β (disposition phase half-life) (converted).
[3] abbreviates: rat, plasma, iv, read-out: α (elimination rate constant, initial distribution phase) (converted).
[4] abbreviates: rat, plasma, iv, read-out: β (elimination rate constant, disposition phase) (converted).
[5] abbreviates: rat, plasma, iv, ND = Not Detected, read-out: t1/2γ (terminal elimination phase half-life) (converted).
Setting [6] is: rat, plasma, iv, ND = Not Detected, read-out: γ (elimination rate constant, terminal elimination phase) (converted).

Where two headings read alike, the source gives them in different places.

By AUC(0-inf) is commonly meant the area under the concentration-time curve extrapolated to infinity. For orientation: clearance means a measure of how efficiently the substance is removed, as volume per time.

As to `COc1cc(F)cc2c1-c1ccc(F)cc1[C@]21NC(=O)NC1=O` [A(-), 2,7-difluoro-4-methoxyspiro[9H-fluorene-9,4'-imidazolidine]-2',5'-dione], the AUMC came out at 402 μg/hour^2/mL and the “elimination profile (in words)” value is given as “lacks a slow terminal elimination phase”. In addition, for the setting “compared with A(+)”, the “volume of distribution (in words)” value was “significantly lower volume of distribution”. Besides, for the setting “rat, plasma, iv”, the AUC(0-inf) was 63000 ng·h/mL, the clearance was 0.528 mL/min/kg, the concentration at 1 h amounted to 7330 ± 220 ng/mL and the concentration at 4 h came out at 3800 ± 975 ng/mL. For the setting “rat, plasma, iv”, this compound had a concentration at 8 h of 2780 ± 449 ng/mL, a concentration at 24 h of 140 ± 17 ng/mL, a concentration at 31 h of 127 ± 36 ng/mL and a concentration at 48 h of 23 ± 8 ng/mL. Under “rat, plasma, iv”, this compound registered a concentration at 72 h of 4 ± 3 ng/mL. Moreover, the half-life under setting [1] is 4.3 h. In addition, the half-life under setting [2] was 8.5 h. Further, under setting [3], the k el was 4.53e-05 s⁻¹. Moreover, under setting [4], the k el was 2.25e-05 s⁻¹.
`COc1cc(F)cc2c1-c1ccc(F)cc1[C@@]21NC(=O)NC1=O` [A(+), 2,7-difluoro-4-methoxyspiro[9H-fluorene-9,4'-imidazolidine]-2',5'-dione]: the AUMC amounted to 965 μg/hour^2/mL; the “elimination profile (in words)” value is “triexponential elimination profile with an initial distribution phase, a disposition phase due to metabolism, and a slow terminal elimination phase”. In addition, for the setting “rat, plasma, iv”, the total exposure AUC(0-inf) was 54400 ng·h/mL, the clearance is 0.612 mL/min/kg, the concentration at 1 h was determined as 2970 ± 679 ng/mL and the concentration at 4 h was 2360 ± 456 ng/mL. For the same compound, for the setting “rat, plasma, iv”, the concentration at 8 h amounted to 2360 ± 281 ng/mL, the concentration at 24 h is 486 ± 170 ng/mL, the concentration at 31 h amounted to 382 ± 49 ng/mL and the concentration at 48 h amounted to 162 ± 32 ng/mL. For the setting “rat, plasma, iv”, this compound returned a concentration at 72 h of 67 ± 15 ng/mL, a concentration at 96 h of 33 ± 11 ng/mL, a concentration at 120 h of 11 ± 4 ng/mL and a concentration at 144 h of 9 ± 1 ng/mL. Besides, for the setting “rat, plasma, iv”, the concentration at 168 h came out at 5 ± 3 ng/mL and the concentration at 216 h was determined as 2 ± 1 ng/mL. Moreover, under setting [5], the half-life was 37.4 h. Under setting [6], the k el is 5e-06 s⁻¹. For the same compound, under setting [1], the half-life is 3.1 h. Moreover, the half-life under setting [2] was 14.5 h. Also, under setting [3], the k el is 6.17e-05 s⁻¹. In addition, the k el under setting [4] is 1.33e-05 s⁻¹.
`COc1cc(F)cc2c1-c1ccc(F)cc1C21NC(=O)NC1=O` (racemic) [A(±), 2,7-difluoro-4-methoxyspiro[9H-fluorene-9,4'-imidazolidine]-2',5'-dione]: the AUMC was found to be 854 μg/hour^2/mL and the “elimination profile (in words)” value is “kinetic profile similar to that of A(+) with the presence of a persistent elimination phase”. Besides, for the setting “rat, plasma, iv”, the total exposure AUC(0-inf) was 60400 ng·h/mL, the clearance was 0.552 mL/min/kg, the concentration at 1 h came to 5080 ± 441 ng/mL and the concentration at 4 h stood at 3590 ± 441 ng/mL. In addition, for the setting “rat, plasma, iv”, the concentration at 8 h was found to be 2420 ± 5440 ng/mL, the concentration at 24 h was 352 ± 34 ng/mL, the concentration at 31 h is 194 ± 22 ng/mL and the concentration at 48 h is 108 ± 27 ng/mL. Where the note is “rat, plasma, iv”, the concentration at 72 h turned out to be 3 ± 4 ng/mL, the concentration at 96 h stood at 17 ± 4 ng/mL, the concentration at 120 h worked out at 13 ± 3 ng/mL and the concentration at 144 h was 11 ± 2 ng/mL. Further, for the setting “rat, plasma, iv”, the concentration at 168 h came to 5 ± 2 ng/mL and the concentration at 216 h was 2 ± 1 ng/mL. Further, under “rat, plasma, iv, read-out: Vss (apparent volume of distribution at steady state)”, the Vd was 0.47 L/kg. The half-life under setting [5] is 40.7 h. The k el under setting [6] was 4.72e-06 s⁻¹. For the same compound, the half-life under setting [1] was 5.8 h. Besides, the half-life under setting [2] was 8 h. Moreover, the k el under setting [3] was 3.28e-05 s⁻¹. For the same compound, under setting [4], the k el is 2.36e-05 s⁻¹.
